# Source: ChEMBL document CHEMBL1201862, “PubChem BioAssay data set” (2004)
# Calls of active or inactive are those of the source. Cut-off read from the data, not from the text of the source: actives have a measured IC50 and inactives only a lower limit.
# Target: Envelope glycoprotein gp160 (Human immunodeficiency virus 1, UniProt Q6QLK5)
# Assay: inhibitors of HIV fusion peptide binding, primary screen, biochemical, uHTS, fluorescence dequenching (AID 1986)
# Chain of Envelope glycoprotein gp160 (Q6QLK5 whole entry, the tested form may be a part): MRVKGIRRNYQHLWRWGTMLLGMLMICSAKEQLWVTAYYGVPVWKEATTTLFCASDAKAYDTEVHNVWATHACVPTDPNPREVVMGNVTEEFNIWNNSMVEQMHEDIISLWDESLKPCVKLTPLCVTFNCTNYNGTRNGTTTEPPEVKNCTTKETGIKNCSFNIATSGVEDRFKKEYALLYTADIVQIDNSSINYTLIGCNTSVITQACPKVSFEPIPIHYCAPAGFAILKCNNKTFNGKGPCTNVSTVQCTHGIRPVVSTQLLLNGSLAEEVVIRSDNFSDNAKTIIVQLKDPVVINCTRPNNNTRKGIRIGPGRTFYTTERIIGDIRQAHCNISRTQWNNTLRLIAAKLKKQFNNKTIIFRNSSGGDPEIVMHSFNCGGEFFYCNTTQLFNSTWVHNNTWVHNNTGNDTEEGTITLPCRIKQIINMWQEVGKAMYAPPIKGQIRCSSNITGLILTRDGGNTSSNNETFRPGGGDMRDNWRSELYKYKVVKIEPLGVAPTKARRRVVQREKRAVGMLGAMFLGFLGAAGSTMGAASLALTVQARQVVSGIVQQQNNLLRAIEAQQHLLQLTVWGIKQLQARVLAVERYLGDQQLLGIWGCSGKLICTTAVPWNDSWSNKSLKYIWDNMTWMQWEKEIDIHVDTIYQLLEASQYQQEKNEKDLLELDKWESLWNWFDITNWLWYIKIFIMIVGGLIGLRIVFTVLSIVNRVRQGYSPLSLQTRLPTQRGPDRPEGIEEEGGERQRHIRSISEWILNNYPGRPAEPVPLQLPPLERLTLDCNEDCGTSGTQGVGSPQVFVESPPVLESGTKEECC
row,Compound,IC50
1,COc1ccc(NS(=O)(=O)c2ccc3c(c2)[C@H]2C=CC[C@H]2[C@@H](c2ccc(C(=O)O)cc2)N3)cc1,8.25 µM (active)
2,O=C1/C(=C\c2ccc(O)c(O)c2)C(c2ccccc2)=NN1c1ccccc1,17.6 µM (active)
3,CC(C)S(=O)(=O)C1=NSC2=NC(=O)/C(=C\c3ccc(-c4ccccc4)o3)C(=N)N21,8.73 µM (active)
